Values quoted from earlier work, collected in patent publication US20240024159A1, “POSTERIOR CHAMBER PLACEMENT OF SUSTAINED RELEASE IMPLANT” (Allergan, Inc., priority 2020, published 2024).

Test system: prostaglandin (PG) sensitive receptors

interaction with prostaglandin (PG) sensitive receptors: no meaningful interaction
SMILES: CCNC(=O)CCC/C=C\C[C@@H]1[C@@H](/C=C/[C@@H](O)CCc2ccccc2)[C@H](O)C[C@@H]1O [bimatoprost]
